# Measured values: ChEMBL document CHEMBL1201862, “PubChem BioAssay data set” (2004)
#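 Results reflect a 48-hour exposure of cells in 96-well plates to compound at five concentrations. GI50 is the concentration that inhibits growth by half.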 Calls of active or inactive are those of the source. Rule as the data show it: active = GI50 up to about 1.1 µM and inactive = higher.
# Key:
# Test in all cases: DTP human tumour cell line panel, 48 h
# [1] = tested on: 786-0
# [2] = tested on: A498
# [3] = tested on: A549
# [4] = tested on: ACHN
# [5] = tested on: BT-549
# [6] = tested on: CAKI-1
# [7] = tested on: CCRF-CEM
# [8] = tested on: COLO 205
# [9] = tested on: DU-145
# [10] = tested on: EKVX
# [11] = tested on: HCT-116
# [12] = tested on: HCT-15
# [13] = tested on: HL-60
# [14] = tested on: HOP-62
# [15] = tested on: HOP-92
# [16] = tested on: HT-29
# [17] = tested on: Hs-578T
# [18] = tested on: IGROV-1
# [19] = tested on: K562
# [20] = tested on: KM12
# [21] = tested on: LOX IMVI
# [22] = tested on: M14
# [23] = tested on: MCF7
# [24] = tested on: MDA-MB-231
# [25] = tested on: MDA-MB-435
# [26] = tested on: MDA-N
# [27] = tested on: MOLT-4
# [28] = tested on: Malme-3M
# [29] = tested on: NCI-H23
# [30] = tested on: NCI-H460
# [31] = tested on: NCI-H522
# [32] = tested on: NCI/ADR-RES
# [33] = tested on: OVCAR-3
# [34] = tested on: OVCAR-4
# [35] = tested on: OVCAR-5
# [36] = tested on: OVCAR-8
# [37] = tested on: PC-3
# [38] = tested on: RPMI-8226
# [39] = tested on: RXF 393
# [40] = tested on: SF-268
# [41] = tested on: SF-295
# [42] = tested on: SF-539
# [43] = tested on: SK-MEL-28
# [44] = tested on: SK-MEL-2
# [45] = tested on: SK-MEL-5
# [46] = tested on: SK-OV-3
# [47] = tested on: SN12C
# [48] = tested on: SNB-19
# [49] = tested on: SR
# [50] = tested on: SW-620
# [51] = tested on: T47D
# [52] = tested on: TK-10
# [53] = tested on: U-251
# [54] = tested on: UACC-257
# [55] = tested on: UACC-62
# [56] = tested on: UO-31
# [57] = tested on: NCI-H226
# [58] = tested on: SNB-75
smiles,measurement,setting,value
CN(C)CCCNC(=O)c1cc2/c(=C\c3ccc(N(C)C)cc3)c3ccccc3n2[n+]1C,GI50,[1],52.8 µM (inactive)
same,GI50,[2],6.04 µM (inactive)
same,GI50,[3],> 100 µM (inactive)
same,GI50,[4],> 100 µM (inactive)
same,GI50,[5],63.7 µM (inactive)
same,GI50,[6],> 100 µM (inactive)
same,GI50,[7],35.1 µM (inactive)
same,GI50,[8],8.73 µM (inactive)
same,GI50,[9],> 100 µM (inactive)
same,GI50,[10],17.9 µM (inactive)
same,GI50,[11],26.2 µM (inactive)
same,GI50,[12],> 100 µM
same,GI50,[13],11.9 µM (inactive)
same,GI50,[14],48.3 µM (inactive)
same,GI50,[15],22.9 µM (inactive)
same,GI50,[16],27.5 µM (inactive)
same,GI50,[17],> 100 µM (inactive)
same,GI50,[18],15.7 µM (inactive)
same,GI50,[19],8.83 µM (inactive)
same,GI50,[20],24.7 µM (inactive)
same,GI50,[21],42 µM (inactive)
same,GI50,[22],21.4 µM (inactive)
same,GI50,[23],21.8 µM (inactive)
same,GI50,[24],21.5 µM (inactive)
same,GI50,[25],24.9 µM (inactive)
same,GI50,[26],24.4 µM (inactive)
same,GI50,[27],34.8 µM (inactive)
same,GI50,[28],23.1 µM (inactive)
same,GI50,[29],21.3 µM (inactive)
same,GI50,[30],51.2 µM (inactive)
same,GI50,[31],2.64 µM (inactive)
same,GI50,[32],> 100 µM (inactive)
same,GI50,[33],15.4 µM (inactive)
same,GI50,[34],8.77 µM (inactive)
same,GI50,[35],56.6 µM (inactive)
same,GI50,[36],40.8 µM (inactive)
same,GI50,[37],39.5 µM (inactive)
same,GI50,[38],20.4 µM (inactive)
same,GI50,[39],> 100 µM (inactive)
same,GI50,[40],32.6 µM (inactive)
same,GI50,[41],40.3 µM (inactive)
same,GI50,[42],21.2 µM (inactive)
same,GI50,[43],30.8 µM (inactive)
same,GI50,[44],17.6 µM (inactive)
same,GI50,[45],15.6 µM (inactive)
same,GI50,[46],> 100 µM (inactive)
same,GI50,[47],1.58 µM (inactive)
same,GI50,[48],24.8 µM (inactive)
same,GI50,[49],23.3 µM (inactive)
same,GI50,[50],31.1 µM (inactive)
same,GI50,[51],1.45 µM (inactive)
same,GI50,[52],90.6 µM (inactive)
same,GI50,[53],22.4 µM (inactive)
same,GI50,[54],21.4 µM (inactive)
same,GI50,[55],17.3 µM (inactive)
same,GI50,[56],> 100 µM (inactive)
OC12CC3c4ccccc4NC3C3Oc4cccc5c4C31CCN(CC1CC1)C2C5 (stereo not drawn),GI50,[1],16.7 µM (inactive)
same,GI50,[2],17.9 µM (inactive)
same,GI50,[3],18.4 µM (inactive)
same,GI50,[4],18.9 µM (inactive)
same,GI50,[5],16.3 µM (inactive)
same,GI50,[6],17.6 µM (inactive)
same,GI50,[7],23.4 µM (inactive)
same,GI50,[8],20.9 µM (inactive)
same,GI50,[9],17.1 µM (inactive)
same,GI50,[10],16.7 µM (inactive)
same,GI50,[11],16.8 µM (inactive)
same,GI50,[12],17.9 µM
same,GI50,[14],18.5 µM (inactive)
same,GI50,[15],11.4 µM (inactive)
same,GI50,[16],15.5 µM (inactive)
same,GI50,[17],23.9 µM (inactive)
same,GI50,[18],15.5 µM (inactive)
same,GI50,[19],15.5 µM (inactive)
same,GI50,[20],18.8 µM (inactive)
same,GI50,[21],15.9 µM (inactive)
same,GI50,[22],17.7 µM (inactive)
same,GI50,[23],17.8 µM (inactive)
same,GI50,[24],17.9 µM (inactive)
same,GI50,[25],17.9 µM (inactive)
same,GI50,[26],17.9 µM (inactive)
same,GI50,[27],15.5 µM (inactive)
same,GI50,[28],19.7 µM (inactive)
same,GI50,[57],26.1 µM (inactive)
same,GI50,[29],13 µM (inactive)
same,GI50,[30],17.6 µM (inactive)
same,GI50,[31],21.7 µM (inactive)
same,GI50,[32],21.2 µM (inactive)
same,GI50,[33],16.9 µM (inactive)
same,GI50,[34],20.7 µM (inactive)
same,GI50,[35],21.1 µM (inactive)
same,GI50,[36],16.4 µM (inactive)
same,GI50,[37],16.7 µM (inactive)
same,GI50,[38],18.4 µM (inactive)
same,GI50,[39],14.3 µM (inactive)
same,GI50,[40],18.2 µM (inactive)
same,GI50,[41],30.9 µM (inactive)
same,GI50,[42],26.5 µM (inactive)
same,GI50,[43],13.8 µM (inactive)
same,GI50,[44],19.5 µM (inactive)
same,GI50,[45],16.8 µM (inactive)
same,GI50,[46],18.7 µM (inactive)
same,GI50,[47],17.2 µM (inactive)
same,GI50,[48],18.2 µM (inactive)
same,GI50,[58],15.3 µM (inactive)
same,GI50,[49],17.4 µM (inactive)
same,GI50,[50],11.8 µM (inactive)
same,GI50,[51],18.9 µM (inactive)
same,GI50,[52],17.3 µM (inactive)
same,GI50,[53],17.3 µM (inactive)
same,GI50,[54],17.8 µM (inactive)
same,GI50,[55],18.4 µM (inactive)
same,GI50,[56],15.8 µM (inactive)
